Laboratory results published in patent US20260273018A1, “PHARMACEUTICAL COMPOSITION CONTAINING SPECIFIC SELF-ASSEMBLING PEPTIDE RADA16 FOR TREATING OR PREVENTING LOWER GASTROINTESTINAL DISEASES SUCH AS INFLAMMATORY BOWEL DISEASE” (3-D Matrix, Ltd., priority 2021, published 2026).

Tests used:
[1] = tested on: DSS-induced ulcerative colitis model; test: Transanal administration experiment on DSS-induced ulcerative colitis model mice (DAI, body weight, large intestine length, general condition); type: in vivo
Experimental: A mouse was made to drink an aqueous solution of 2.5 w/v % dextran sulfate sodium, and the efficacy of a specific peptide having the amino acid sequence indicated by SEQ ID NO 1 on the induced ulcerative colitis model is retrieved by Disease Activity Index. Similarly, Mucosta (registered trademark) and Selbex (registered trademark), which are therapeutic agents for duodenal ulcers, were administered alone or in combination with a peptide having the amino acid sequence indicated by SEQ ID NO 1, and Pentasa (registered trademark) and Rectabul (registered trademark), which are therapeutic agents for ulcerative colitis, were administered alone to compare and study the efficacy. Furthermore, the plasma and removed large intestine collected on the final day of the experiment were shipped to a test contractor. • Dextran sulfate sodium aqueous solution drink period (preparation of dextran sulfate sodium-induced ulcerative colitis model): • Nov. 16, 2019 to Nov. 25, 2019 • Administration period: Nov. 22, 2019 to Nov. 24, 2019 • Disease Activity Index (DAI: Evaluation of body weight, properties, and occult blood): • November 16, November 22, and Nov. 25, 2019 • Blood collected: Nov. 25, 2019 • Large intestine removed and length measured: • Nov. 25, 2019 • Experiment end date: Nov. 25, 2019
• Species: Mouse (SPF) • Strain: BALB/cAnNCrlCrlj • Source: Charles River Laboratories Japan (Atsugi Breeding Center) • Reason for selection of the test system: The mouse strain is widely used for toxicity and drug efficacy tests. • Sex and order (purchase) count: Male: 60 • Age at purchase: 9 weeks • Quarantine and habituation: Quarantine was carried out for six days from the date of animal purchase. During the quarantine period, the general condition was observed daily and body weight was measured on the 1st day (purchase date), 3rd day, and 7th day (quarantine end date). In addition, the habituation period was from the date of animal purchase to the day before the start of drinking the DSS aqueous solution, the general condition was also observed once a day after the quarantine period, and body weight was measured on a grouping day. • Age at the start of test substance administration: 11 weeks
• Administration method: Performed under anesthesia by inhalation of Japanese pharmacopeia isoflurane (Mylan Inc., hereinafter abbreviated as isoflurane). • If there is a clot of feces in the rectum, the animal was massaged, and the feces were removed as much as possible. • The administration solution was aspirated into a 1 mL polypropylene syringe cylinder (sterilized disposable product), inserted through the anus part using a mouse sonde (about 1 cm from the tip), and slowly administered transanally. […] Then, it was slowly pulled out and liquid that leaked from the anus part was wiped off. It should be noted that mixing was performed by lightly inverting by hand so that the test substance administration solution and the Rectabul administration solution would not have large bubbles as much as possible and so that the other comparative control substance administration solution would not foam up, and then each solution was aspirated into the syringe cylinder. • Amount of administration liquid: 0.7 mL • Reason for selection: The method of administration to mice is common and appropriate.
• Animal subjects: All test animals after grouping (excluding non-treatment group) • Model production period: Day 1-10 • Model production method: On the day that drinking of the DSS aqueous started (between 13:00 and 14:00), the water in the glass or polycarbonate water dispenser installed in the cage was changed to a DSS 2.5 w/v % aqueous solution, and the solution was freely ingested. […]

[2] = tested on: DSS-induced ulcerative colitis model, large intestine tissue; test: Histopathological evaluation of colon HE-stained specimens (Histological Colitis Score); type: in vivo, Mouse; conditions: compared to the negative control; scores only in the FIGURE
Experimental: A histopathological evaluation of the colon HE-stained specimens prepared in example 1 was performed. • 1. […] Histopathological evaluation • Blind evaluation of a pathology score was carried out in accordance with the scoring below for two pieces of the upper and lower parts of the large intestine for each specimen (36 pieces in total). Each score of (1), (2), (3) is multiplied by (4), and the total of these is defined as a “Histological Colitis Score.”^1) It should be noted that the lower part of the large intestine is located on the […], and • the upper part of the large intestine is located to the right thereof.
• 1) Dieleman LA., et al. Chronic experimental colitis induced by dextran sulfate sodium (DSS) is characterized by Th1 and Th2 cytokines. Clin Exp Immunol. 1998.

[3] = Day 10, transanal 0.7 mL/head on Days 7-9
[4] = observation period, considered due to progress of DSS colitis

In the case of RADARADARADARADA, the “average DAI score, Day 7” value ([1]; Day 7 of DSS 2.5 w/v % drinking (first treatment day), group average, 0.7 mL/head transanal once a day on Days 7, 8, 9) is reported as 2.8, the “cases scoring 1 "+" for fecal occult blood (visual)” value ([1]; Day 10) is reported as “one case” and the “length of the large intestine, end part of the ileum to just before the rectum (average)” value [1, 3] is reported as 45.52 mm. The “length of the large intestine, end part of the ileum to the anus part (average)” value [1, 3] was 75.71 mm, the “average DAI score, Day 10” value ([1]; Day 10 of DSS drinking, after transanal 0.7 mL/head on Days 7, 8, 9, group average) was 2.8 and the death ([1]; found dead on Day 10, cause considered progression of DSS-induced ulcerative colitis) was “a death was observed”. For the same sequence, the “general condition: anal bleeding (cases)” value ([1]; observation period) was “one case”, the “general condition: black stool (cases)” value ([1]; observation period) was “one case” and the “general condition: perianal hair stains (pale red) (cases)” value ([1]; observation period) was “one case”. The “general condition: piloerection (cases)” value ([1]; observation period) was “one case”, the “general condition: irregular respiration (cases)” value [1, 4] was “one to three cases” and the “general condition: small amount of defecation (cases of 5 animals)” value [1, 4] was “one to three cases”. The “DAI score on Day 10 compared to Day 7” value ([1]; result in words, control group increased) was “did not increase compared to Day 7”, the “body weight loss on Day 10 compared to Day 7” value ([1]; result in words, control group lost further weight) was “no further body weight loss was observed compared to Day 7” and the “histological score: suppression of intestinal tissue inflammation” value [2] was “had an effect of suppressing intestinal tissue inflammation compared to the negative control”.
